The text below walks through data of patent US20040266834A1, “Thiazolidinediones alone or in cabination with other therapeutic agents for cancer therapy” (priority 1999, published 2004).

In brackets after ≈: the same amount, converted by molar mass. Counter-ions that a name gives are not always drawn. Starred links: 1 amine or outer side, 2 acyl side, 3 side chain; linkers in the order of their positions; H or OH if unused. Positions of bridges follow the written chain, without caps; N, C: chain ends. Non-standard residues stand in square brackets, D forms with d. Residues, ends and D or L forms follow the SMILES beside them. Chains are numbered I, II in the order given. Actinocin(9to1) = Cc1c2oc3c(C)ccc(C(=O)[*:1])c3nc-2c(C(=O)[*:2])c(N)c1=O; NMeV = CN[C@H](C(=O)O)C(C)C; Sar = CNCC(=O)O

Data set [1] concerns 222 cells. The data set is described as follows: DNA content, ovarian tumor cells 222. It is filed as cell-based. The following applies: Homo sapiens, 72 h, 3 days, read-out: inhibition of growth. On the procedure: (§1) […]. At the end of 3 days DNA content was determined as a measure of cell proliferation.
(§2) Concentration of cellular DNA was determined using Hoechst dye H 33258 and a Hoefer DyNA Quant fluorometer according to manufacturer's instructions. Results are expressed as μg DNA/well. All experiments were done in triplicate.

Data set [2] concerns Saos-2 cells. The data set can be described thus: DNA content (Hoechst H 33258) as measure of cell proliferation, Saos-2. The format is cell-based, human. Here is the method:
Cells exposed to a single treatment of troglitazone, 5-fluorouracil, and/or cis-platinum for 3 days. […] The phrase “cell proliferation” is used herein interchangeably with “cell growth.” Concentration of cellular DNA was determined using Hoechst dye H 33258 and a Hoefer DyNA Quant fluorometer according to manufacturer's instructions. Results are expressed as μg DNA/well. All experiments were done in triplicate.

Data set [3] has as its system Saos-2 cells. The data set can be described thus: [3H]thymidine incorporation, Saos-2. It is filed as cell-based, human. On the procedure:
Saos-2 cells (10,000/well) were seeded into wells of 12-well plates and grown for 4 days until near confluent. […]. [Methyl-^3H]thymidine (1 μCi) and thymidine (3 μM) were then added to each well, and the incubation was continued for another 4 h. Cells were rinsed with ice-cold PBS twice and were treated with ice-cold 10% TCA. The cells were then rinsed twice with PBS and solubilized in 400 μl of solution composed of 0.03% SDS in 0.3 N NaOH. The extracts were neutralized with HCl, and radioactivity incorporated into the cells was quantified by liquid scintillation spectrometry.
(Dividing cells build labelled thymidine or BrdU into new DNA.)

Data set [4] deals with p21 mRNA. The data set is described as follows: Ribonuclease protection assay, cell cycle regulator mRNA. It is filed as cell-based, human. The following applies: single treatment 1 μM, 24 hr, normalized to GAPDH. Here is the method: To determine whether troglitazone effected any of the cell cycle regulator genes, ribonuclease protection assay (RPA) was performed measuring mRNAs encoding p130, Rb, p107, p53, p57, p27, p21, p19, p18, p16, p14/15 and the housekeeping gene products L32 and GAPDH. […] Cells were lysed and total RNA was isolated. […] Ribonuclease protection assay was performed using kit according to manufacturer instructions (PharMingen, San Diego, Calif.). Conditions that were optimized included using 20 μg of total RNA from Hs578T cells and a 1:200 dilution of RNAse A/T (200 units/ml RNase A and 10,000 units/ml RNase T). […] Results are reported as the ratio of […] signal. All experiments were done in triplicate from different RNA preparations.

The subject of data set [5] is PPARγ in UMCR 3 cells. The data set can be described thus: PPRE/luciferase reporter, UMCR 3. The conditions noted are these: 10 μM, 24-hour treatment. It is filed as cell-based, human. Here is the method: A tandem PPRE luciferase expression plasmid was constructed using three copies of a consensus PPRE 5′ to the luciferase gene. Cells were transfected using the calcium phosphate method of transfection. 10 μg of PPRE/luciferase reporter plasmid was transfected into URMC 3, 6, and 7 cells. A CMV-CAT reporter plasmid was cotransfected (0.5 μg) with PPRE/luciferase as an internal control for transfection efficiency. CAT activity was measured by ELISA as described by Boehringer-Mannheim. […] Cells lysates were prepared and luciferase activity was determined using an AutoLumat luminometer.
A general note: A reporter such as luciferase makes a cellular process visible.

For data set [6], the system named is CaOV3 cells. The data set is described as follows: DNA content, ovarian tumor cells CaOV3. The format is cell-based, human. The following applies: 3 days; for inhibition at 10 µM: Homo sapiens, Caov-3, 72 h, read-out: inhibition of cell proliferation. On the procedure: as §1, §2
For data set [7], the system named is Saos-2 cells. The data set is described as follows: Lactate dehydrogenase (LDH) activity in media, Saos-2. It is filed as cell-based, human. On the procedure:
Saos-2 cells were purchased from ATCC (Rockville, Md.) and cultured in 10% fetal bovine serum, penicillin/streptomycin, and DMEM media. Cells exposed to a single treatment of troglitazone, 5-fluorouracil, and/or cis-platinum for 3 days. At the end of 3 days media was tested for lactate dehydrogenase (LDH) activity as a measure of cell toxicity and DNA content was determined as a measure of cell proliferation. The phrase “cell proliferation” is used herein interchangeably with “cell growth.”
Media from treated cells was assayed for LDH activity with a colorimetric dye-oxidation method which has been previously described (11). Briefly, the assay mix including lactate, NAD, INT dye and diaphorase in PBS was added to media from the cells and incubated 30 minutes. Red color development is indicative of INT […] to formazan product, giving an indication of LDH activity when measured at 490 nm.

Data set [8] has as its system PA-1 cells. The data set is described as follows: DNA content, ovarian tumor cells PA-1. The format is cell-based. The conditions noted are these: Homo sapiens, 72 h, 3 days, read-out: inhibition of cell proliferation. On the procedure: as §1, §2
The conditions of data set [9]: cited from earlier work.
Data set [10] relates to multiple myeloma. The conditions noted are these: oral administration; cited from earlier work.
For data set [11], the system named is three renal cell carcinoma cell lines. The data set can be described thus: DNA content, three renal cell carcinoma cell lines taken together. The format is cell-based, human. The conditions noted are these: 10 μM; UMCR 3, 6 and 7. On the procedure:
Human renal tumor cells (URMC 3, 6, 7) were cultured in 5% fetal bovine serum, penicillin/streptomycin, and alpha-MEM media. […] At the end of 3 days DNA content was determined as a measure of cell proliferation.
as §2

The conditions of data set [12]: humans; cited from earlier work.
Data set [13] relates to HCT 15 cells. The following applies: cited from earlier work.
Data set [14] deals with HCT 116 cells. The conditions noted are these: cited from earlier work.
Data set [15] relates to human ovarian 2774 cells. The data set can be described thus: DNA content, ovarian 2774 cells, combinatorial therapy. The format is cell-based. The conditions noted are these: taxol 1 ng/ml, cis-platin 100 ng/ml, troglitazone 5 or 10 μM, alone or combined. On the procedure:
as §1, §2

The term IC50 denotes the concentration that inhibits the measured activity by half. Turning to `Cc1c(C)c2c(c(C)c1O)CCC(C)(COc1ccc(CC3SC(=O)NC3=O)cc1)O2` (racemic) [troglitazone, ±5-[[4-[(3,4-dihydro-6-hydroxy-2,5,7,8-tetramethyl-2H-1-benzopyran-2-yl)methoxy]phenyl]methyl]-2,4-thiazolidinedione], the inhibition at 10 µM in data set [1] was 50%; in data set [8], 60 to 70%. Also, the IC50 in data set [2] (Homo sapiens, 72 h, Saos-2 cells, 3 days after a single treatment, read-out: IC50 (DNA content per well)) was in the range of 1 to 10 µg/mL (≈ 2.26 to 22.6 µM). Further, in [2] (compared with the other thiazolidinediones), the “ability to inhibit cell proliferation in combinatorial therapy (5-FU, doxorubicin)” value was “superior to pioglitazone and BRL49653”. For the same molecule, in data set [3] (10 μg/ml, 24 h exposure), the “decrease in 3H-thymidine incorporation” value is reported as ~45%. In addition, the inhibition at 5 µg/mL in [3] (Homo sapiens, SAOS-2, read-out: inhibition of 3H-uridine uptake, 5 μg/ml, 18 hours) came out at 16%. Further, the inhibition at 10 µg/mL in [3] (Homo sapiens, SAOS-2, read-out: inhibition of 3H-uridine uptake, 10 μg/ml, 18 hours) is 43%. Moreover, the “increase in p21 mRNA levels” value in data set [4] was 2.6 fold. For the same molecule, the “stimulation of PPRE/luciferase transcription” value in data set [5] amounted to 3 fold. In addition, the “inhibition of cell proliferation” value in data set [6] (10 μM) is given as “no inhibitory activity”. The “LDH levels in the media as compared to controls” value in data set [7] (any concentration used, 3 days of treatment) was “not altered”. Moreover, the “lethality to Saos-2 cells (LDH activity)” value in data set [7] (up to 30 μg/ml, 3 days) was “not lethal”.
As for `Cc1c(C)c2c(c(C)c1OC(=O)CCC(=O)O)CC[C@@](C)(CCC[C@H](C)CCC[C@H](C)CCCC(C)C)O2` [Vitamin E succinate], the “inhibition of cell proliferation, compounds compared (FIG. 7)” value in data set [2] (single treatment) is given as “somewhat less effective than troglitazone”.
`CN(CCOc1ccc(CC2SC(=O)NC2=O)cc1)c1ccccn1` (stereo not shown) [rosiglitazone]: the inhibition at 10 µM in [1] was 4%; in [6], 60%; in data set [8], 60 to 70%.
On to `COc1cccc2c1C(=O)c1c(O)c3c(c(O)c1C2=O)C[C@@](O)(C(C)=O)C[C@@H]3O[C@H]1C[C@H](N)[C@H](O)[C@H](C)O1` [Daunorubicin, 5,12-Naphthacenedione, (8S-cis)-8-acetyl-10-[(3-amino-2,3,6-trideoxy-a-L-lyxo-hexanopyranosyl)oxy]-7,8,9,10-tetrahydro-6,8,11-trihydroxy-10-methoxy-, hydrochloride], for which, in data set [9] (in vivo), the oral absorption entry was “poor”.
On to `O=C(O)CCC(=O)O` [succinic acid], for which, in data set [2] (100 μM), the “effect upon cell proliferation” value was “no effect”.
Consider `N[C@@H](Cc1ccc(N(CCCl)CCCl)cc1)C(=O)O` [Melphalan, 4-[bis(2-chloroethyl)amino]-L-phenylalanine], for which the “patients showing a favorable response” value in data set [10] is “one third to one half”.
Take `COc1cccc2c1C(=O)c1c(O)c3c(c(O)c1C2=O)C[C@@](O)(C(=O)CO)C[C@@H]3O[C@H]1C[C@H](N)[C@H](O)[C@H](C)O1` [Doxorubicin, 5,12-Naphthacenedione, (8s-cis)-10-[(3-amino-2,3,6-trideoxy-a-L-lyxo-hexopyranosyl)oxy]-7,8,9,10-tetrahydro-6,8,11-trihydroxy-8-(hydroxyacetyl)-1-methoxy-hydrochloride]: in data set [9] (in vivo), the oral absorption result is listed as “absorbed poorly” and the “secreted into the bile” value was “Forty to 50”.
Turning to `O=C(O)CCCc1ccc(N(CCCl)CCCl)cc1` [Chlorambucil, 4-[bis(2-chlorethyl)amino] benzenebutanoic acid], the oral absorption entry in data set [9] (in vivo) was “rapidly and completely absorbed”.
Take `CC1=C(/C=C/C(C)=C\C=C\C(C)=C\C(=O)O)C(C)(C)CCC1` [9-cis-retinoic acid]: in data set [11], the “growth inhibitory activity (FIGS. 13-15)” value is on record as “little on no growth inhibitory activity”.
As to `CO[C@@]12[C@H](COC(N)=O)C3=C(C(=O)C(C)=C(N)C3=O)N1C[C@@H]1N[C@@H]12` [mitomycin], in data set [12], the “dose recovered/excreted in the urine” value is reported as “Approximately 10%”.
On to `O=NN(CCCl)C(=O)NC1CCCCC1` [Lomustine, 1-(2-chloro-ethyl)-3-cyclohexyl-1 nitrosourea], for which the “serum half-life of the metabolites” value in data set [9] (in vivo) is 16 to 48 h. Besides, the “radioactivity excreted as degradation products within 24 hours” value in data set [9] (oral, 30 mg/m^2 to 100 mg/m^2, radioactive drug) was “about half”.
Take `O.O=P1(N(CCCl)CCCl)NCCCO1` (stereo not shown) [Cyclophosphamide, 2H-1,3,2-Oxazaphosphorin-2-amine, N,N-bis(2-chloroethyl)tetrahydro-, 2-oxide, monohydrate]: the “stability in the gastrointestinal tract” value in data set [9] (in vivo) is on record as “stable”.
In the case of `CC1=C(/C=C/C(C)=C/C=C/C(C)=C/C(=O)O)C(C)(C)CCC1` [all trans retinoic acids], the “growth inhibitory activity (FIGS. 13-15)” value in [11] is “little on no growth inhibitory activity”.
Regarding vitamin E, the IC50 was 750 µM in data set [13] and 3 mM in data set [14]. Besides, in data set [7] (100 μM), the “cell killing (microscopic examination and LDH levels in the media)” value is listed as “cells are being killed”.
As for `CC[C@]1(O)C[C@H]2CN(CCc3c([nH]c4ccccc34)[C@@](C(=O)OC)(c3cc4c(cc3OC)N(C=O)[C@H]3[C@@](O)(C(=O)OC)[C@H](OC(C)=O)[C@]5(CC)C=CCN6CC[C@]43[C@@H]65)C2)C1` [vincristine], the oral absorption entry in [9] (in vivo) was “Unpredictable absorption”.
`CCc1ccc(CCOc2ccc(CC3SC(=O)NC3=O)cc2)nc1` (stereo not shown) [pioglitazone]: the values for the inhibition at 10 µM in data set [1], in data set [6] and in data set [8] were 36%, 60% and 60 to 70%, respectively.
Consider `CC[C@]1(O)C[C@@H]2CN(CCc3c([nH]c4ccccc34)[C@@](C(=O)OC)(c3cc4c(cc3OC)N(C)[C@H]3[C@@](O)(C(=O)OC)[C@H](OC(C)=O)[C@]5(CC)C=CCN6CC[C@]43[C@@H]65)C2)C1` [vinblastine], for which the oral absorption result in data set [9] (in vivo) is reported as “Unpredictable absorption”.
Regarding `CC(=O)O[C@H]1C(=O)[C@@]2(C)[C@H]([C@H](OC(=O)c3ccccc3)[C@]3(O)C[C@H](OC(=O)[C@H](O)[C@@H](NC(=O)c4ccccc4)c4ccccc4)C(C)=C1C3(C)C)[C@]1(OC(C)=O)CO[C@@H]1C[C@@H]2O` [taxol], the inhibition at 0.001 µg/mL in data set [15] (Homo sapiens, read-out: inhibition of cell proliferation) was 28%.
Consider `N.N.[Cl][Pt][Cl]` [cis-platin], for which the “inhibition of cell proliferation” value in data set [15] is reported as 55%. In addition, the oral absorption result in [9] (in vivo) is listed as “not absorbed orally”.
Take `Cc1c2oc3c(C)ccc(C(=O)N[C@@H]4C(=O)N[C@H](C(C)C)C(=O)N5CCC[C@H]5C(=O)N(C)CC(=O)N(C)[C@@H](C(C)C)C(=O)O[C@@H]4C)c3nc-2c(C(=O)N[C@@H]2C(=O)N[C@H](C(C)C)C(=O)N3CCC[C@H]3C(=O)N(C)CC(=O)N(C)[C@@H](C(C)C)C(=O)O[C@@H]2C)c(N)c1=O` [Actinomycin D] (I: T[dV]P[Sar][NMeV] / II: T[dV]P[Sar][NMeV]; ester I:1-I:C, II:1-II:C; linker I:N-II:N via Actinocin(9to1)): the “passage of the blood-brain barrier” value in data set [9] (in vivo) is listed as “does not pass”.
